Data: patent US20250228878A1, “METHOD FOR THE SYNTHESIS OF EVOC PROBES” (OWLSTONE MEDICAL LIMITED, priority 2021, published 2025)

What was measured:
blood cells = experiment: D5-ethanol release in blood incubated with D5-EG or D5-EG-ME (headspace measurement); assay type: cell-based; settings: human blood, 37° C., 2 hours
Experimental: Aim—The following experiment was performed to compare the levels of D5-ethanol produced by blood cells from both D5-ethyl-βD-glucuronide and the D5-ethyl-βD-glucuronide-methyl ester impurity. To understand how the probe behaves in human blood. To determine the background cleavage of the probe (D5-ethyl-βD-glucuronide) and the methyl ester (D5-ethyl-βD-glucuronide-methyl ester) in blood at different concentrations. The cleaved D5-ethanol was extracted from the headspace of the blood and measured with the D5-ethanol analytical method.
• Dilute D5-ethyl-βD-glucuronide in PBS to 1 ug/ul. • Dilute 10 ul of this in 90 ul PBS to 100 ng/ul to use for smaller doses. • Blood drawn on the same day will be despatched to OML after it has been screened. • Aliquot 600 ul of blood into ITEX headspace vials. 10 vials for probe samples and 10 vials for methyl ester samples. • Add indicated concentration of D5-ethyl-βD-glucuronide (Table 1) and D5-ethyl-bD-glucuronide meth methyl ester (Table 2) in each vial. • Incubate all samples at 37° C. for 2 hours in the water bath. • After 2 hours add 100 uM D-saccharic acid-1,4-lactone with a syringe through septum of each ITEX vial and mix gently to inhibit β-glucuronidase activity and put on ice (4° C.) • Place samples on ITEX autosampler and measure D5-ethanol with D5-ethanol analytical method
Results—β-glucuronidase is only expected to be present intracellularly in blood cells. D5-ethyl-βD-glucuronide (D5-EG) is not cell permeable and would therefore not enter into the cells to get cleaved by b-glucuronidase to produce D5-ethanol. Low D5-ethanol levels are therefore expected in blood when incubated with D5-ethyl-βD-glucuronide.
D5-ethyl-βD-glucuronide-methyl ester (D5-EG-ME) is expected to be more cell permeable. If this is the case it would be able to enter into the cell to get cleaved by intracellular β-glucuronidase resulting in an increased in D5-ethanol production.

[1] = tested on: tumor specific extracellular β-glucuronidase; settings: healthy versus tumor bearing mice; cited from earlier work
β-glucuronidase = target: T1, β-glucuronidase (Homo sapiens, UniProt P08236); experiment: Breath test: D5-ethanol in exhaled breath after intravenous probe administration (TD-GC-MS); assay type: in vivo; settings: for D5-ethanol detected on breath: 2 mg/kg intravenous
T1 construct: from tissue; host or cells: in vivo, human subjects (healthy subjects and a lung cancer patient); endogenous enzyme
T1 sequence (P08236 23-651): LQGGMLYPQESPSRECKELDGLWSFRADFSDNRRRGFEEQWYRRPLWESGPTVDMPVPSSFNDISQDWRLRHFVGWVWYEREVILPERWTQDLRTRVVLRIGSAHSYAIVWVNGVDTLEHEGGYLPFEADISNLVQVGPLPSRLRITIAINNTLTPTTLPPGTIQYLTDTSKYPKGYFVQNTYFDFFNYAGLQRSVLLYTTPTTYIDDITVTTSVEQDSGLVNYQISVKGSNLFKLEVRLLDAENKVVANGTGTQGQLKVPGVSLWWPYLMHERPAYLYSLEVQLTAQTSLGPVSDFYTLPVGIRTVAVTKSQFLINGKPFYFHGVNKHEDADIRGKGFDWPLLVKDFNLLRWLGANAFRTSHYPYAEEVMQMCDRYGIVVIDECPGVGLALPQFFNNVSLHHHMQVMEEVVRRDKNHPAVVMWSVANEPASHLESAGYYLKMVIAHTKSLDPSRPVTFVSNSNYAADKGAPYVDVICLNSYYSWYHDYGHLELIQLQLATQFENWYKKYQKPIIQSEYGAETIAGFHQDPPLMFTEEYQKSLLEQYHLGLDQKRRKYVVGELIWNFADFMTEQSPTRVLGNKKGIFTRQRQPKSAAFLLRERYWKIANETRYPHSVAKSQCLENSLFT
Experimental: D5-ethyl-βD-glucuronide was administered to healthy subjects and a lung cancer patient at a concentration of 2 mg/kg. Administration was intravenous.
The concentration of the metabolite was then measured in breath samples. Breath samples were collected using ReCIVA® Breath Sampler at the indicated times following probe administration. Following breath collection sorbent tubes were removed from ReCIVA®, capped off and sent to Owlstone Medical for analysis. At Owlstone Medical the sorbent tubes were analysed for D5-ethanol using TD-GC-MS.

[2] = highest concentration tested (FIG. 2)

Row | SMILES | D5-ethanol production from blood cells (blood cells; [2]) | D5-ethanol signal in breath [1] | D5-ethanol detected on breath (β-glucuronidase; healthy controls) | D5-ethanol detected on breath (β-glucuronidase; lung cancer patient (Stage IIA)) | earliest time at which the metabolite (D5-ethanol) can be detected in breath after administration (β-glucuronidase; lung cancer patient, 2 mg/kg intravenous (FIG. 6)) [min] | D5-ethanol production from blood cells (blood cells; second highest concentration tested (FIG. 2))
1 | [2H]C([2H])([2H])C([2H])([2H])O[C@@H]1O[C@H](C(=O)O)[C@@H](O)[C@H](O)[C@H]1O [D5-EG, D5-ethyl-βD-glucuronide] | only a small amount of D5-ethanol were produced | discriminatory D5-ethanol signal in the breath of mice with tumors | No D5-ethanol was detected | A D5 ethanol signal was detected | 10 | 
2 | [2H]C([2H])([2H])C([2H])([2H])O[C@@H]1O[C@H](C(=O)OC)[C@@H](O)[C@H](O)[C@H]1O [D5-EG-ME, D5-ethyl-βD-glucuronide-methyl ester] | much higher D5-ethanol levels produced |  |  |  |  | much higher D5-ethanol levels produced
